Measured values as given in ChEMBL document CHEMBL2331252, “Facile one-pot synthesis of novel dispirooxindole-pyrrolidine derivatives and their antimicrobial and anticancer activity against A549 human lung adenocarcinoma cancer cell line” (Bioorg Med Chem Lett, 2013).
In brackets after ≈: the same amount, converted by molar mass. Activity calls are given as the source filed them. No cut-off for these calls is given here.

What was measured:
[1] = system: Shigella flexneri; experiment: Antibacterial activity against Shigella flexneri MTCC 1457 after 24 hrs; assay type: functional; details: MTCC 1457, 24 h
[2] = system: Staphylococcus aureus; experiment: Antibacterial activity against Staphylococcus aureus MTCC 96 at 1 mg/disc after 24 hrs by disc diffusion method; assay type: functional
[3] = system: A549; experiment: Cytotoxicity against human A549 cells assessed as cell death at 100 ug/ml by MTT assay; assay type: functional
[4] = system: A549; experiment: Cytotoxicity against human A549 cells assessed as cell death at 200 ug/ml by MTT assay; assay type: functional
[5] = system: Shigella flexneri; experiment: Antibacterial activity against Shigella flexneri MTCC 1457 at 1 mg/disc after 24 hrs by disc diffusion method; assay type: functional
[6] = system: Klebsiella aerogenes; experiment: Antibacterial activity against Enterobacter aerogenes MTCC 111 after 24 hrs; assay type: functional
[7] = system: Klebsiella aerogenes; experiment: Antibacterial activity against Enterobacter aerogenes MTCC 111 at 1 mg/disc after 24 hrs by disc diffusion method; assay type: functional
[8] = system: Candida albicans; experiment: Antifungal activity against Candida albicans MTCC 227 after 48 to 72 hrs; assay type: functional
[9] = system: Klebsiella pneumoniae; experiment: Antibacterial activity against Klebsiella pneumoniae MTCC 109 at 1 mg/disc after 24 hrs by disc diffusion method; assay type: functional
[10] = system: Staphylococcus aureus; experiment: Antibacterial activity against Staphylococcus aureus MTCC 96 after 24 hrs; assay type: functional; details: MTCC 96, 24 h
[11] = system: Micrococcus luteus; experiment: Antibacterial activity against Micrococcus luteus MTCC 106 at 1 mg/disc after 24 hrs by disc diffusion method; assay type: functional
[12] = system: Staphylococcus aureus; experiment: Antibacterial activity against methicillin-resistant Staphylococcus aureus after 24 hrs; assay type: functional
[13] = system: Salmonella typhimurium; experiment: Antibacterial activity against Salmonella typhimurium MTCC 1251 after 24 hrs; assay type: functional, Salmonella enterica subsp. enterica serovar Typhimurium; details: Salmonella enterica, MTCC 1251, 24 h
[14] = Antifungal activity against Malassezia pachydermatis at 1 mg/disc after 48 hrs by disc diffusion method; assay type: functional
[15] = system: Candida albicans; experiment: Antifungal activity against Candida albicans MTCC 227 at 1 mg/disc after 48 hrs by disc diffusion method; assay type: functional
[16] = system: Proteus vulgaris; experiment: Antibacterial activity against Proteus vulgaris MTCC 1771 after 24 hrs; assay type: functional
[17] = system: Klebsiella pneumoniae; experiment: Antibacterial activity against Klebsiella pneumoniae MTCC 109 after 24 hrs; assay type: functional; details: MTCC 109, 24 h
[18] = system: Proteus vulgaris; experiment: Antibacterial activity against Proteus vulgaris MTCC 1771 at 1 mg/disc after 24 hrs by disc diffusion method; assay type: functional
[19] = system: A549; experiment: Cytotoxicity against human A549 cells assessed as cell death at 50 ug/ml by MTT assay; assay type: functional
[20] = system: Micrococcus luteus; experiment: Antibacterial activity against Micrococcus luteus MTCC 106 after 24 hrs; assay type: functional
[21] = system: Salmonella typhimurium; experiment: Antibacterial activity against Salmonella typhimurium MTCC 1251 at 1 mg/disc after 24 hrs by disc diffusion method; assay type: functional, Salmonella enterica subsp. enterica serovar Typhimurium
[22] = system: A549; experiment: Cytotoxicity against human A549 cells assessed as cell death by MTT assay; assay type: functional, cell-based
[23] = system: Staphylococcus aureus; experiment: Antibacterial activity against methicillin-resistant Staphylococcus aureus at 1 mg/disc after 24 hrs by disc diffusion method; assay type: functional

| SMILES | MIC [1] [µg/mL] | inhibition zone (IZ) [2] [mm] | Activity [3] [%] | Activity [4] [%] | inhibition zone (IZ) [5] [mm] | MIC [6] | MIC [8] | inhibition zone (IZ) [9] [mm] | MIC [10] [µg/mL] | MIC [12] [µg/mL] | MIC [13] [µg/mL] | inhibition [14] | MIC ([16]; MTCC 1771, 24 h) [µg/mL] | MIC [17] [µg/mL] | inhibition zone (IZ) [18] [mm] | Activity [19] [%] | inhibition zone (IZ) [21] [mm] | inhibition zone (IZ) [23] [mm] | inhibition zone (IZ) [7] [mm] | inhibition zone (IZ) [11] [mm] | other results |
| --- | --- | --- | --- | --- | --- | --- | --- | --- | --- | --- | --- | --- | --- | --- | --- | --- | --- | --- | --- | --- | --- |
| C#CCN1C(=O)[C@@]2(c3ccccc31)N(C)C[C@](C#N)(C(=O)c1c[nH]c3ccccc13)[C@]21C(=O)Nc2ccccc21 | 500 (≈ 951 µM) | 12 | 59.31 | 67.67 | 8 | inactive | inactive | 14 | 125 (≈ 238 µM) | 500 (≈ 951 µM) | 500 (≈ 951 µM) | inactive | 500 (≈ 951 µM) | 62.5 (≈ 119 µM) | 10 | 55.22 | 9 | 8 |  |  | inhibition [7]: inactive; inhibition [11]: inactive; inhibition [15]: inactive; MIC [20]: inactive; IC50 [22]: 50 µg/mL (≈ 95.1 µM) |
| CCCCN1C(=O)[C@@]2(c3ccccc31)N(C)C[C@](C#N)(C(=O)c1c[nH]c3ccccc13)[C@]21C(=O)Nc2ccccc21 | 500 (≈ 920 µM) | 9 | 19.6 | 32.25 | 9 |  | 500 µg/mL (≈ 920 µM) | 8 | 500 (≈ 920 µM) | 500 (≈ 920 µM) | 500 (≈ 920 µM) | inactive |  | 500 (≈ 920 µM) |  | 4.27 | 10 | 11 | 10 | 8 | MIC ([6]; MTCC 111, 24 h): 500 µg/mL (≈ 920 µM); inhibition zone (IZ) [15]: 8 mm; MIC [16]: inactive; inhibition [18]: inactive; MIC ([20]; MTCC 106, 24 h): 500 µg/mL (≈ 920 µM) |
| CN1C(=O)[C@@]2(c3ccccc31)N(C)C[C@](C#N)(C(=O)c1c[nH]c3ccccc13)[C@]21C(=O)Nc2ccccc21 | 250 (≈ 498 µM) | 13 | 7.22 | 13.99 | 12 | inactive | 250 µg/mL (≈ 498 µM) | 13 | 250 (≈ 498 µM) | 500 (≈ 997 µM) | 500 (≈ 997 µM) | inactive | 125 (≈ 249 µM) | 125 (≈ 249 µM) | 14 | 1.71 | 10 | 11 | 8 | 11 | inhibition zone (IZ) [15]: 12 mm; MIC ([20]; MTCC 106, 24 h): 250 µg/mL (≈ 498 µM) |
